Where a SMILES comes first, the peptide text is derived from it. [ ]: non-standard residue; d: D form. The star is where a group is joined. Piperazinyl(4-(2-MeOPh)) = COc1ccccc1N1CCN(*)CC1; Piperazinyl(4-Ph) = c1ccc(N2CCN(*)CC2)cc1; dGly(2-thienyl) = N[C@@H](C(=O)O)c1cccs1; d(tBuAla) = CC(C)(C)C[C@@H](N)C(=O)O

In experiment [1] the target is T1, endothelin A (ETA) receptors (Sus scrofa, UniProt Q29010).
T1 construct: A membrane fraction prepared from swine ventricular muscle; from tissue; host or cells: swine ventricular muscle membrane fraction
T1 sequence (Q29010 21-427): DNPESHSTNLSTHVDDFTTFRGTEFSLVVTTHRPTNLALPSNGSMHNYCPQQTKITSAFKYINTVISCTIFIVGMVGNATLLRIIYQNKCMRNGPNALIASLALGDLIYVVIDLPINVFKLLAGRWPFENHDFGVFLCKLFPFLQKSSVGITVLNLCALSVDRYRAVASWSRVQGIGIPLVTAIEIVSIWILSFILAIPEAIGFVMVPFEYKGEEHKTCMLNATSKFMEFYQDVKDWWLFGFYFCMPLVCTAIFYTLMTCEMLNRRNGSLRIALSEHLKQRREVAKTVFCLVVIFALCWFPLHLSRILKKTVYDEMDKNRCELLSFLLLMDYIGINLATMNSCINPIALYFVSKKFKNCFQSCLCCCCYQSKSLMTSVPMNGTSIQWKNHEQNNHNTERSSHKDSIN
As to the kind of experiment: Determination of ETA receptor binding activity ([125I]ET-1, swine ventricular muscle membrane fraction). The following applies: [125I]ET-1 binding, 25° C., 1 hour. The procedure:
Determination of endothelin receptor binding activity (1) Determination of ETA receptor binding activity
A membrane fraction prepared from swine ventricular muscle was diluted to 12 μg/ml with an assaying buffer and dispensed to assaying tubes at 100 μl per tube. To this membrane fraction suspension were added 2 μl of a solution of endothelin-l labeled with 100 pmole of radioactive iodine ([^125 I]ET-1, produced by Amersham Medical Ltd.) and 3 μl of a solution of the subject compound at various concentrations, followed by incubation at 25° C. for 1 hour. The suspension was then diluted with an ice-cooled assaying buffer and filtered through a glass filter GF/F (produced by Whatman K.K.). The membrane fraction containing endothelin A (ETA) receptors and receptor-bound [^125 I)ET-1 were recovered on the filter. The radioactivity retained on the filter was measured to obtain the amount of [^125 I]ET-1 bound to the ETA receptors. The amount of [^125 I,]ET-1 bound in the presence of ET-1 in great excess as the test compound was taken as the amount of nonspecific binding. The amount of specific binding (SPB) of [^125 I]ET-1 was obtained by subtracting the amount of nonspecific binding from the total amount of binding determined. The percent SPB value at test compound concentration C (molar concentration by volume) was defined as the percent ratio of the amount of specific binding relative to the amount of specific binding obtained at a test compound concentration of 0. The thus-obtained value was substituted for the following "pseudo-Hill's equation" to calculate the test compound concentration (IC50 value) required to have a value of 50% for the amount of specific binding of [125I]ET-1.
(§1) log[%SPB/(100 - %SPB)]=n[logC - log(IC50)]
(§2) n: Pseudo-Hill's coefficient

The target of experiment [2] is T2, endothelin B (ETB) receptors (Bos taurus, UniProt P28088).
T2 construct: A membrane fraction prepared from a bovine brain; from tissue; host or cells: bovine brain membrane fraction
T2 sequence (P28088 27-441): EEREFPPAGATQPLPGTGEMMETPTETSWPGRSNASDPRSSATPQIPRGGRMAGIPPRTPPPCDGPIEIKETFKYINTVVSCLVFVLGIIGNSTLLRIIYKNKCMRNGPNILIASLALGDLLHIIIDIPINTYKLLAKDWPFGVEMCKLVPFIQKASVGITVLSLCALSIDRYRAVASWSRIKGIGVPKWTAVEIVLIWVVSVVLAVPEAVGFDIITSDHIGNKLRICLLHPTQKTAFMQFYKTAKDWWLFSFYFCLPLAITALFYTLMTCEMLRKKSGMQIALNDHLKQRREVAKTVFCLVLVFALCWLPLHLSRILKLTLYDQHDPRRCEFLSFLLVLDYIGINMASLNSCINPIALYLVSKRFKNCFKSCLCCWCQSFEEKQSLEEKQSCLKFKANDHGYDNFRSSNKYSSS
As to the kind of experiment: Determination of ETB receptor binding activity ([125I]ET-1, bovine brain membrane fraction). The following applies: [125I]ET-1 binding, 25° C., 1 hour. The procedure:
(2) Determination of ETB receptor binding activity
A membrane fraction prepared from a bovine brain was diluted to 150 μg/ml with an assaying buffer and dispensed to assaying tubes at 100 μl per tube. To this membrane fraction suspension were added 2 μl of a solution of endothelin-1 labeled with 100 pM of radioactive iodine ([^125 I]ET-1, produced by Amersham Medical Ltd.) and 3 μl of a solution of the subject compound at various concentrations, followed by incubation at 25° C. for 1 hour. The suspension was then diluted with an ice-cooled assaying buffer and filtered through a glass filter GF/F (produced by Whatman K.K.). The membrane fraction containing endothelin B (ETB) receptors and receptor-bound [^125 I)ET-1 were recovered on the filter. The radioactivity retained on the filter was measured to obtain the amount of (^125 I]ET-1 bound to the ETB receptors. The amount of (^125 I]ET-1 bound in the presence of ET-1 in great excess as the test compound was taken as the amount of nonspecific binding. The amount of specific binding (SPB) of [^125 I]ET-1 was obtained by subtracting the amount of nonspecific binding from the total amount of binding determined. The percent SPB value at test compound concentration C (molar concentration by volume) was defined as the percent ratio of the amount of specific binding relative to the amount of specific binding obtained at a test compound concentration of 0. The thus-obtained value was substituted for the following "pseudo-Hill's equation" to calculate the test compound concentration (IC50 value) required to have a value of 50% for the amount of specific binding of [^125 I]ET-1.
as §1, §2

In experiment [3] the test system is porcine coronary vein ring preparations constricted with sarafotoxin S6c. As to the kind of experiment: Determination of porcine coronary vein relaxation activity. Particulars: peptide at 0.01 μM; vein constricted with S6c 1 nM for 45 min; relative to constriction of S6c (100%). The procedure:
Determination of porcine coronary vein relaxation activity
Ring preparations of porcine coronary vein (3 mm in a diameter) were placed in an organ bath filled with Krebs solution gassed with 95% O2 /5%CO2 at 37° C. and allowed to stand for 1.5 h at a resting load of 0.5 g tension for vein. The preparations were constricted with 60 mM KCl for 15 min and then washed and allowed to stand for 1.5 h at the resting load. The vein preparations constricted with sarafotoxin S6c (S6c) at 1 nM for 45 min were used to determine the effect of the peptide of Example 4 at 0.01 μM. Result is shown in the following Table as the relaxation rate relative to the constriction of S6c (100%).

Turning to `CC(C)C[C@@H]1NC(=O)[C@@H](CC(C)(C)C)NC(=O)[C@H](CC(=O)O)NC(=O)[C@H](CC(=O)N2CCN(c3ccccc3)CC2)NC(=O)[C@@H](CC(=O)O)NC(=O)[C@@H](Cc2c[nH]c3ccccc23)NC1=O` [Example 2, cyclo(--D--Asp--L--Asp(B1)--L--Asp--D--γMeLeu--L--Leu--D--Trp--)] (cyclo(D(Piperazinyl(4-Ph))D[d(tBuAla)]L[dW][dD])), the IC50 turned out to be 0.18 nM in experiment [1] and 28 nM in experiment [2]. For `CC(C)C[C@@H]1NC(=O)[C@@H](c2cccs2)NC(=O)[C@H](CC(=O)O)NC(=O)[C@H](CC(=O)N2CCN(c3ccccc3)CC2)NC(=O)[C@@H](CC(=O)O)NC(=O)[C@@H](Cc2c[nH]c3ccccc23)NC1=O` [Reference Example 1, cyclo(--D--Asp--L--Asp(B1)--L--Asp--D--Thg(2)--L--Leu--D--Trp--), reference compound] (cyclo(D(Piperazinyl(4-Ph))D[dGly(2-thienyl)]L[dW][dD])) the same measures were 0.08 nM and 120 nM. The matching figures for `COc1ccccc1N1CCN(C(=O)C[C@@H]2NC(=O)[C@@H](CC(=O)O)NC(=O)[C@@H](Cc3cn(C(C)=O)c4ccccc34)NC(=O)[C@H](CC(C)C)NC(=O)[C@@H](CC(C)(C)C)NC(=O)[C@H](CC(=O)O)NC2=O)CC1` [Example 3, cyclo(--D--Asp--L--Asp(B7)--L--Asp--D--γMeLeu--L--Leu--D--Trp(Ac)--)] (cyclo(D(Piperazinyl(4-(2-MeOPh)))D[d(tBuAla)]L[dW](Ac)[dD])): 0.49 nM and 14 nM. Turning to “cyclo[--D--Asp--Asp(B7)--Asp--D--γMeLeu--Leu--D--Trp--].2Na [Example 4]”, the “relaxation rate (%)” value in experiment [3] was found to be 66%. Regarding `COc1ccccc1N1CCN(C(=O)C[C@@H]2NC(=O)[C@@H](CC(=O)O)NC(=O)[C@@H](Cc3c[nH]c4ccccc34)NC(=O)[C@H](CC(C)C)NC(=O)[C@@H](CC(C)(C)C)NC(=O)[C@H](CC(=O)O)NC2=O)CC1` [Example 1, cyclo[--D--Asp--Asp(B7)--Asp--D--γMeLeu--L--Leu--D--Trp--]] (cyclo(D(Piperazinyl(4-(2-MeOPh)))D[d(tBuAla)]L[dW][dD])), the IC50 in experiment [1] worked out at 0.18 nM; in experiment [2] it was 11 nM.

(Values after US5948754A, “Cyclic hexapeptides, their production and use” (Takeda Chemical Industries, Ltd., priority 1993, dated 1999).)
